Drawing on PMC7794217, “A bi-specific lectin from the mushroom Boletopsis grisea and its application in glycoanalytical workflows” (Scientific Reports, 2021), this text covers Kd for one compound.

What all share (assay): SPR (Biacore […]), equilibrium fit to […] model
Common to all, as to type: binding
In general terms: In SPR one partner is held on a chip, and binding of the other changes the refractive index at the surface.

Assay [1] concerns the target T1, BGL (Boletopsis grisea lectin), recombinant wild-type rBGL (Boletopsis grisea, UniProt A0A1L2F5J1).
T1 construct: full-length 143 amino acid ORF (GenBank KT315924), expressed in E. coli, lacking N-terminal Met

In assay [2] the target is T2, BGL (Boletopsis grisea lectin), G49N mutant (Boletopsis grisea, UniProt A0A1L2F5J1, G49N).
T2 construct: full-length BGL ORF expressed in E. coli
T2 sequence (A0A1L2F5J1 entry or part of it G49N): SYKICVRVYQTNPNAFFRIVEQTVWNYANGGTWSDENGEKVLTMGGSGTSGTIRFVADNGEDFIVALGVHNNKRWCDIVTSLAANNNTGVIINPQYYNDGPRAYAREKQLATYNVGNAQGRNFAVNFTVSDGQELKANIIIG

Assay [3] has as its target T3, BGL (Boletopsis grisea lectin), H71E mutant (Boletopsis grisea, UniProt A0A1L2F5J1, H71E).
T3 construct: full-length BGL ORF expressed in E. coli

Assay [4] addresses T4, BGL (Boletopsis grisea lectin), S48K mutant (Boletopsis grisea, UniProt A0A1L2F5J1, S48K).
T4 construct: full-length BGL ORF expressed in E. coli

T4 sequence (A0A1L2F5J1 entry or part of it S48K): as the sequence (A0A1L2F5J1 entry or part of it G49N) above
T3 sequence (A0A1L2F5J1 entry or part of it H71E): as the sequence (A0A1L2F5J1 entry or part of it G49N) above
T1 sequence (A0A1L2F5J1 2-143): as the sequence (A0A1L2F5J1 entry or part of it G49N) above

The term Kd denotes a measure of binding affinity in units of concentration. With `CC(=O)N[C@H]1C(O)O[C@H](CO)[C@@H](O)[C@@H]1O` (stereo partly shown) [GlcNAc], the Kd in assay [1] worked out at 1086 ± 8 µM; in assay [2], 910 ± 10 µM; in assay [3] it was 2330 ± 80 µM; in assay [4], 1010 ± 20 µM.
